Read-outs that look alike come from different tables or passages of the source.
Legend:
Type in all cases: cell-based
[1] = tested on: human gastric adenocarcinoma cells AGS; experiment: MTT in vitro cell proliferation inhibition experiment, AGS; details: MTT method, 48 h contact between compound and cell, read-out: Antiproliferative activity (IC50, μM) AGS
[2] = tested on: Human liver tumor cells HepG2; experiment: MTT in vitro cell proliferation inhibition experiment, HepG2; details: MTT method, 48 h contact between compound and cell, read-out: Antiproliferative activity (IC50, μM) HepG2
[3] = tested on: human colon cancer cells HCT116; experiment: MTT in vitro cell proliferation inhibition experiment, HCT116; details: 48 h contact between compound and cell, read-out: Antiproliferative activity (IC50, μM) HCT116
[4] = Homo sapiens, HCT-116, MTT method

IC50 ([1]; Homo sapiens) | IC50 ([2]; Homo sapiens) | IC50 [3, 4] | IC50 [1] | IC50 [2] | IC50 ([3]; MTT method) | SMILES
6.02 µM | 5.67 µM | 5.34 µM |  |  |  | Cc1ccc(C2C(c3c[nH]c4ccccc34)NC3(C(=O)c4ccccc4C3=O)C2C(=O)c2nc3ccccc3[nH]2)cc1 (stereo not drawn) [Compound 44, 3-(1H-benzimidazol-2-carbonyl)-5-(1H-indol-3-yl)-4-p-tolylspiro[inden-2,2′-pyrrolidine]-1,3-dione]
> 100 µM | > 100 µM | 56.4 µM |  |  |  | CCOc1ccc(C2C(c3c[nH]c4ccccc34)NC3(C(=O)c4ccccc4C3=O)C2C(=O)c2nc3ccccc3[nH]2)cc1OCC (stereo not drawn) [Compound 45, 3-(1H-benzimidazol-2-carbonyl)-3,4-diethoxyphenyl-5-(1H-indol-3-yl)spiro[inden-2,2′-pyrrolidine]-1,3-dione]
21.4 µM | 12.2 µM | 18.4 µM |  |  |  | O=C(c1nc2ccccc2[nH]1)C1C(c2cccc(Br)c2)C(c2c[nH]c3ccccc23)NC12C(=O)c1ccccc1C2=O (stereo not drawn) [Compound 46, 3-(1H-benzimidazol-2-carbonyl)-4-(3-bromophenyl)-5-(1H-indol-3-yl)spiro[inden-2,2′-pyrrolidine]-1,3-dione]
38 µM | 34.6 µM | 39.8 µM |  |  |  | CCOc1ccc(C2C(c3c[nH]c4ccccc34)NC3(C(=O)c4ccccc4C3=O)C2C(=O)c2nc3ccccc3[nH]2)cc1 (stereo not drawn) [Compound 47]
44.2 µM | 40.2 µM | 37.8 µM |  |  |  | O=C(c1nc2ccccc2[nH]1)C1C(c2ccc(Br)cc2)C(c2c[nH]c3ccccc23)NC12C(=O)c1ccccc1C2=O (stereo not drawn) [Compound 48]
 |  |  | 21.4 µM | 11 µM | 21.7 µM | COc1ccc(C2=N[C@@H](c3ccc(Cl)cc3)[C@@H](c3ccc(Cl)cc3)N2C(=O)N2CCNC(=O)C2)c(OC(C)C)c1 [Nutlin-3a, reference compound]
